{
  "source": "patent US8691576B2",
  "about": "“Regeneration and mass propagation of Jatropha curcas through somatic embryogenesis” (Joil (S) Pte Ltd., priority 2008, dated 2014)",
  "system": "Jatropha curcas calli from zygotic embryo explants",
  "assay": "Type II somatic embryo (TIISE) formation after shifting calli to hormone-free DGA medium",
  "format": "cell-based",
  "details": "then DGA medium 6 weeks",
  "protocol": "Yellowish or white calli were observed on the explants from 3rd week if subcultured in the same medium. Extensively tested variables for induction of somatic embryogenesis were media of numerous compositions. Combinations of MS salt, Gamborg B5 salts, MS vitamins, Gamborg B5 vitamins; presence or absence of NH4NO3; amount of KNO3 (1.9-3.8 g/l); organic nitrogen source, e.g., free amino acids, casein hydrolysate; trace amount of hormones, e.g., kinetin (0-1 mg/l), benzyl adenine (0-1 mg/l); choice of carbon sources, e.g., glucose, sucrose and maltose; and activated carbon (5 g/l). In a large number of media, the calli died within 1-2 weeks when shifted into a new medium. […] An example of the medium is DGA medium in which 1 g/l glutamine and 0.5 g/l asparagines was supplemented. A cluster of somatic embryos of various stages emerged around the 10th day after the medium shift to DGA (FIG. 2).\nSomatic embryos formed in DGA medium underwent multiplication and maturation simultaneously. We called them Type II Somatic Embryos (TIISE). TIISEs were preferentially formed on explants previously cultured in media containing higher concentration of 2,4-D, for example, 2-5 mg/l during the first induction culture (Table 1).",
  "data": [
    {"smiles": "O=C(O)COc1ccc(Cl)cc1Cl", "note": "[2,4-D, 2,4-dichlorophenoxyacetic acid]", "values": [
      {"measurement": "TIISE (%)", "setting": "2,4-D 0.1 mg/L 4 weeks", "value": 11, "unit": "%"},
      {"measurement": "TIISE Count", "setting": "2,4-D 0.1 mg/L 4 weeks, 19 explants", "value": 2},
      {"measurement": "TIISE (%)", "setting": "2,4-D 0.2 mg/L 4 weeks", "value": 4, "unit": "%"},
      {"measurement": "TIISE Count", "setting": "2,4-D 0.2 mg/L 4 weeks, 28 explants", "value": 1},
      {"measurement": "TIISE (%)", "setting": "2,4-D 0.5 mg/L 4 weeks", "value": 19, "unit": "%"},
      {"measurement": "TIISE Count", "setting": "2,4-D 0.5 mg/L 4 weeks, 16 explants", "value": 3},
      {"measurement": "TIISE (%)", "setting": "2,4-D 1 mg/L 4 weeks", "value": 0, "unit": "%"},
      {"measurement": "TIISE Count", "setting": "2,4-D 1 mg/L 4 weeks, 19 explants", "value": 0},
      {"measurement": "TIISE (%)", "setting": "2,4-D 2 mg/L 4 weeks", "value": 36, "unit": "%"},
      {"measurement": "TIISE Count", "setting": "2,4-D 2 mg/L 4 weeks, 25 explants", "value": 9},
      {"measurement": "TIISE (%)", "setting": "2,4-D 5 mg/L 4 weeks", "value": 39, "unit": "%"},
      {"measurement": "TIISE Count", "setting": "2,4-D 5 mg/L 4 weeks, 23 explants", "value": 9},
      {"measurement": "TIISE (%)", "setting": "2,4-D 10 mg/L 4 weeks", "value": 24, "unit": "%"},
      {"measurement": "TIISE Count", "setting": "2,4-D 10 mg/L 4 weeks, 21 explants", "value": 5},
      {"measurement": "TIISE (%)", "setting": "2,4-D 20 mg/L 4 weeks", "value": 23, "unit": "%"},
      {"measurement": "TIISE Count", "setting": "2,4-D 20 mg/L 4 weeks, 13 explants", "value": 3}
    ]}
  ]
}
